Results on 5 compounds are retold here after PMC9688159 (Cancers, 2022).

Where two headings read alike, the source gives them in different places. Square brackets hold non-standard residues; d marks the D form. Peptide text beside a SMILES is read from it. pGlu = O=C1CC[C@@H](C(=O)O)N1

Assay [1] has as its system normal human fibroblasts (NHF). Briefly: cell viability (MTS). The class given is cell-based. The source says: (§1) Pancreatic carcinoma cell lines, PANC-1 (ACC 783), BxPC-3 (ACC 760), and Capan-1 (ACC 244), were obtained from DSMZ (Braunschweig, Germany). Normal human fibroblasts (NHF; 106-05A) were purchased from Sigma-Aldrich (Poznan, Poland). PANC-1 and NHF cells were maintained in DMEM containing 10% fetal bovine serum (FBS) and 1% antibiotic solution. BxPC-3 and Capan-1 cells were maintained in […] with 15% FBS and 1% penicillin/streptomycin solution. Cells were regularly tested for mycoplasma contamination.
(§2) In all experiments, cells were seeded in 96-well plates at a density of 4 × 10^3 (PANC-1, BxPC-3), 5 × 10^3 (Capan-1), and 2 × 10^3 (NHF) cells per well. Plates were incubated for 24 h at 37 °C.
(§3) To evaluate the effect of each compound on cell viability, cells were treated with different concentrations (0–60 µM) of tested compounds for 24, 48, and 72 h. Next, 20 µL of MTS solution was added to each well. Plates were incubated for 2 h at 37 °C. The absorbance was measured at 490 nm. Untreated cells served as a negative control. The number of viable cells is directly proportional to the intensity of color produced. Cell viability is expressed as a percentage of control cells.
(§4) Next, the medium was removed and a fresh medium containing tested compounds (at a concentration of 0–60 µM) was added. Plates were incubated for a further 24 h. Next, 20 µL of MTS solution was added to each well, and incubation was started (for 2 h at 37 °C). The absorbance was measured at 490 nm. Untreated cells served as a negative control.

Assay [2] relates to PANC-1, BxPC-3 and NHF cells. Briefly: cell migration (scratch assay), statements for several cell lines together. The class given is cell-based, human. To be noted: for effect on cell migration: scratch assay, 0-40 µM, 24 and 48 h. As for the experimental part:
In all experiments, cells were seeded in 24-well plates at a density of 7 × 10^3 (PANC-1, BxPC-3) and 4 × 10^3 (NHF) cells per well and incubated for 48 h. Next, clear lines were made using a sterile 10 μL pipette tip. The medium was carefully removed, and 500 µL of fresh medium was added to the cells. For evaluation of the effect of each compound on cell proliferation, cells were treated with different concentrations (0–40 µM) of tested compounds. Phase-contrast microscopic pictures were taken at 24, 48, and 72 h, and the area of the wound was measured using Image J software (National Institute of Health, V1.5, Bethesda, […], USA). […] Phase-contrast microscopic pictures were taken at 6 and 24 h. The cell migration rate was calculated by measuring the area of the wound at each timepoint. The measurements were performed using ImageJ software. The medium was not changed during the experiment. Due to its inability to form a confluent monolayer, cell migration was not evaluated for Capan-1 cells.

Assay [3] has as its system BxPC-3 cells. Briefly: cell viability (MTS). The assay is classed as cell-based, human.
From the text: as §1, §2, §3, §4

The subject of a further assay is PANC-1 cells. Briefly: cell viability (MTS). The class given is cell-based, human.
From the text: as §1, §2, §3, §4

The test system of the next assay is Capan-1 cells. Briefly: cell viability (MTS). The assay is classed as cell-based, human.
From the text: as §1, §2, §3, §4

Assay [4] concerns PANC-1, BxPC-3, Capan-1 cells and NHF. The assay is classed as cell-based, human.
From the text: as §1, §2, §3

Assay [5] addresses T1, DRD1 (Rattus norvegicus, UniProt P18901). To be noted: read-out: IC50, DRD1; rat spinal cord homogenates; 2 nM [3H]SCH-23390.
Method: (§5) Rats were decapitated, and their brains and spinal cords were quickly removed. […] Briefly, the brains and spinal cords were homogenized in freshly prepared ice-cold Tris-HCl buffer (50 mM, pH 7.4) and centrifuged at 18,000 rpm for 20 min (4 °C). The resulting supernatant was removed while the pellet was taken up in the original volume of Tris-HCl buffer. The homogenate was further incubated at 37 °C for 30 min and again centrifuged. The received pellet was consequently suspended in 50 mM Tris-HCl (pH 7.4) buffer and kept until analysis at −80 °C.
(§6) In DRD1 displacement, the Tris-HCl buffer (pH 7.4) contained 120 mM NaCl, 5 mM KCl, 1 mM MgCl2, 2 mM CaCl2, and 1 µM mianserin. In DRD2 displacement, the Tris-HCl buffer (pH 7.4) was a mixture of 5 mM KCl, 2 mM MgCl2, 2 mM CaCl2, and 1 µM ketanserin. The incubation of tissue membranes was performed in the presence of the unlabeled ligands in increasing concentrations (10^−10–10^−5 M) at 35 °C for 45 min with [^3H]SCH-23390 and at 25 °C for 120 min with [^3H]spiperone. […] The experiment was performed in duplicate and repeated at least three times.
(§7) In the competition binding assays, the IC50 value was calculated using ‘one site competition’ fitting. The inhibitory activity was presented as a percentage of the specific binding observed.
For assay [6], the target named is T2, DRD2 (Rattus norvegicus, UniProt P61169).
T2 construct: from tissue; host or cells: Wistar rat brain and spinal cord membranes
Briefly: ligand-stimulated [35S]GTPγS binding (G-protein activity), membrane homogenates. The class given is biochemical. To be noted: for maximal G-protein efficacy (Emax): basal activity = 100%; for EC50: logarithm of EC50, read-out: potency (log EC50) (converted). (In general: Binding of GTPγS marks nucleotide exchange on a G protein.)

In assay [7] the test system is BxPC-3 cells. Briefly: cell migration (scratch assay). The assay is classed as cell-based, human. The conditions noted are these: BxPC-3, after 24 h. As for the experimental part:
In all experiments, cells were seeded in 24-well plates at a density of 7 × 10^3 (PANC-1, BxPC-3) and 4 × 10^3 (NHF) cells per well and incubated for 48 h. Next, clear lines were made using a sterile 10 μL pipette tip. The medium was carefully removed, and 500 µL of fresh medium was added to the cells.
For evaluation of the effect of each compound on cell proliferation, cells were treated with different concentrations (0–40 µM) of tested compounds. Phase-contrast microscopic pictures were taken at 24, 48, and 72 h, and the area of the wound was measured using Image J software (National Institute of Health, V1.5, Bethesda, MA, USA).
The cell migration rate was calculated by measuring the area of the wound at each timepoint. The measurements were performed using ImageJ software. The medium was not changed during the experiment. Due to its inability to form a confluent monolayer, cell migration was not evaluated for Capan-1 cells.

The target in assay [8] is T2, DRD2. The assay is described as follows: [3H]spiperone competition binding (DRD2 displacement), membrane homogenates. To be noted: 0.25 nM [3H]spiperone.
Method: as §5, §6, §7
Assay [9] addresses T1, DRD1. The assay is described as follows: biochemical.
Method: as §5, §6, §7
Another assay has as its system GRP-Rs. Further details: method as in PMID 1850273. To be noted: compared with GRP; cited from earlier work.
The mark [10] stands for this setting: Homo sapiens, Fibroblast, NHF, 24 h.
Where [11] appears, read: Homo sapiens, Fibroblast, NHF, 72 h.
Where [12] appears, read: rat spinal cord membrane homogenates.
Setting [13] is: Homo sapiens, Fibroblast, NHF, 48 h.

T2 sequence (P61169 whole entry): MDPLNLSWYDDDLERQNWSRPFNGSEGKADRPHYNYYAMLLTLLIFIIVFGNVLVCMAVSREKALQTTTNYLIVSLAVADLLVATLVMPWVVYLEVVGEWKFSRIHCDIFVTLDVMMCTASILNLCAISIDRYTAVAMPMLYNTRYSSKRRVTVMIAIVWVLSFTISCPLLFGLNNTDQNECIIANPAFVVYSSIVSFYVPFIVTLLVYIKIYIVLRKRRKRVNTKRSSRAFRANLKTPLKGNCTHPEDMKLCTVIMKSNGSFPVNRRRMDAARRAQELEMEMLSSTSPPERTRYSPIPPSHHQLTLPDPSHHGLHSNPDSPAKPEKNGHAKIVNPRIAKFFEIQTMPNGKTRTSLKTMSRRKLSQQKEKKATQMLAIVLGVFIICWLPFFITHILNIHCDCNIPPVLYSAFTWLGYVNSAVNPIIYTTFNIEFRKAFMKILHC
T1 sequence (P18901 whole entry): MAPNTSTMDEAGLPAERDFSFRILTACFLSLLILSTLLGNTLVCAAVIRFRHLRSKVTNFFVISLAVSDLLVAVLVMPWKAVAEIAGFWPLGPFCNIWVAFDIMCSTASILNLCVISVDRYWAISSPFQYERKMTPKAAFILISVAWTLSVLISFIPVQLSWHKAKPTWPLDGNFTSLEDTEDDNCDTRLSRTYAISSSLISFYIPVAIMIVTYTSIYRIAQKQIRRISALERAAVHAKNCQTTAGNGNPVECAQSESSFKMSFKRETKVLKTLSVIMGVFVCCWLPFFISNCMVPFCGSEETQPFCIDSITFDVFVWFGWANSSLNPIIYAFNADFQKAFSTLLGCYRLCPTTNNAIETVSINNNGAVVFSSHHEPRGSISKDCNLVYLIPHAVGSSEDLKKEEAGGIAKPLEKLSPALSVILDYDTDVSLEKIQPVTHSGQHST

Consider `Nc1ccn([C@@H]2O[C@H](CO)[C@@H](O)C2(F)F)c(=O)n1` [Gemcitabine, gemcitabine], for which the IC50 in assay [1] (setting [10]) was above 60 µM; in assay [1] (setting [11]) it was 1.28 ± 0.1 µM; with BxPC-3 cells [3] (Homo sapiens, BXPC-3, 24 h), above 60 µM; with BxPC-3 cells [3] (Homo sapiens, BXPC-3, 48 h), 0.643 ± 0.05 µM; with BxPC-3 cells [3] (Homo sapiens, BXPC-3, 72 h) it was 0.296 ± 0.15 µM; in the assay on PANC-1 cells (Homo sapiens, PANC-1, 24 h) it was above 60 µM. Moreover, the IC50 with PANC-1 cells (Homo sapiens, PANC-1, 72 h) was 0.28 ± 0.031 µM; in the assay with Capan-1 cells (Homo sapiens, CAPAN-1, 24 h), above 60 µM; in the assay on Capan-1 cells (Homo sapiens, CAPAN-1, 72 h), 0.657 ± 0.13 µM. In [2], the “effect on cell migration” value is “slower migration with increasing concentration”.
Regarding `Cc1nc2n(c(=O)c1CCN1CCC(c3noc4cc(F)ccc34)CC1)CCCC2` [Risperidone], the “effect on cell viability” value in assay [1] is “no effect”. In addition, the “decrease in cell viability” value in assay [4] was “up to 20%”.
On to `CSCC[C@H](NC(=O)[C@H](Cc1ccccc1)NC(=O)[C@H](Cc1c[nH]cn1)NC(=O)CNC(=O)[C@@H](NC(=O)[C@H](C)NC(=O)[C@H](Cc1c[nH]c2ccccc12)NC(=O)[C@H](CCC(N)=O)NC(=O)[C@@H]1CCCN1C(=O)[C@@H](NC(=O)[C@@H]1CCC(=O)N1)C(C)C)C(C)C)C(N)=O` [Ranatensin] ([pGlu]VPQWAVGHFM-NH2), for which the IC50 is above 10 µM at DRD1 [5]; 0.0127 µM at DRD2 [8] (rat brain membranes); 0.0488 ± 0.00115 µM at DRD2 [8] (rat spinal cord homogenates); above 60 µM in assay [1] (NHF, 48 h); above 60 µM in assay [1] (NHF, 72 h); above 10 µM against DRD1 [9]. For the same compound, the half-maximal inhibitory concentration (IC50) is above 60 µM in the assay on BxPC-3 cells [3] (BxPC-3, 48 h); above 60 µM in the assay on BxPC-3 cells [3] (BxPC-3, 72 h); above 60 µM with PANC-1 cells (PANC-1, 48 h); above 60 µM with PANC-1 cells (PANC-1, 72 h); above 60 µM in the assay with Capan-1 cells (Capan-1, 48 h); above 60 µM with Capan-1 cells (Capan-1, 72 h). Also, on DRD2 [6] (conclusion from binding and [35S]GTPγS assays), the “functional character at DRD2” value was “DRD2 agonist”. The “maximal G-protein efficacy (Emax)” value on DRD2 [6] (rat brain membrane homogenates) came to 124.1%; on DRD2 [6] (setting [12]) it was 119.8%. The results for the EC50 on DRD2 [6] (rat brain membrane homogenates) and at DRD2 [6] (setting [12]) were 0.0184 µM and 0.78 µM, respectively. Besides, the “Emax in presence of selective DRD2 antagonist risperidone” value is listed as 101.5% on DRD2 [6] (rat brain, basal = 100%) and 100.0% on DRD2 [6] (rat spinal cord, basal = 100%). The “Emax in presence of selective DRD1 antagonist SCH-39166” value at DRD2 [6] (rat spinal cord membranes, basal = 100%) was 117.4%. Also, in the assay on BxPC-3 cells [7], the “concentration with total wound closure” value is at least 20 µM. The “effect on cell viability” value was “reduction in fibroblast viability compared to untreated cells” in assay [1] (NHF, longer exposure (48 and 72 h)); “lower viability compared to the untreated cells” in [4] (cancer cells, 24 h); “significant increase in PANC-1 cell viability” in the assay with PANC-1 cells (PANC-1, prolonged incubation (48 and 72 h)). Also, the “migration rate of DRD2-blocked cells” value in assay [2] (PANC-1 and BxPC-3, risperidone pretreated, 24 h) is given as “slower in comparison to cells treated with RAN alone”. For the same compound, the “effect on cell migration” value in assay [2] is “migrated at a similar rate to untreated cells”. In the assay on Capan-1 cells (Capan-1, RAN only, 24 h), the “decrease in viability compared to the control” value was “around 20%”. Besides, the “affinity for GRP-Rs” value in the assay with GRP-Rs is on record as “equal affinity for GRP-Rs to GRP itself”.
With `O=c1[nH]c2ccccc2n1C1CCN(CCCC(c2ccc(F)cc2)c2ccc(F)cc2)CC1` [Pimozide, pimozide], the IC50 came to 38.7 ± 1.37 µM in assay [1] (setting [10]); 28.7 ± 3.82 µM in assay [1] (setting [13]); 23.6 ± 0.92 µM in assay [1] (setting [11]); 21.7 ± 2.27 µM in the assay on BxPC-3 cells [3] (Homo sapiens, BXPC-3, 24 h); 16.1 ± 0.94 µM in the assay on BxPC-3 cells [3] (Homo sapiens, BXPC-3, 48 h); 17.8 ± 1.38 µM with BxPC-3 cells [3] (Homo sapiens, BXPC-3, 72 h). The IC50 in the assay on PANC-1 cells (Homo sapiens, PANC-1, 24 h) came out at 15.1 ± 1.51 µM; in the assay on PANC-1 cells (Homo sapiens, PANC-1, 48 h), 17 ± 1.08 µM; in the assay with PANC-1 cells (Homo sapiens, PANC-1, 72 h), 20.3 ± 2.02 µM; in the assay with Capan-1 cells (Homo sapiens, CAPAN-1, 24 h), 25.3 ± 3.11 µM; in the assay with Capan-1 cells (Homo sapiens, CAPAN-1, 48 h) it was 20.7 ± 1.3 µM; in the assay with Capan-1 cells (Homo sapiens, CAPAN-1, 72 h), 20 ± 1.79 µM. Besides, the “effect on cell migration” value in [2] is listed as “decreased with the increasing concentration”.
Take `NCCc1ccc(O)c(O)c1` [Dopamine]: the IC50 was above 60 µM in assay [1] (setting [10]); above 60 µM in [1] (setting [13]); above 60 µM in [1] (setting [11]); above 60 µM in the assay on BxPC-3 cells [3] (Homo sapiens, BXPC-3, 24 h); above 60 µM in the assay on BxPC-3 cells [3] (Homo sapiens, BXPC-3, 48 h); above 60 µM in the assay on BxPC-3 cells [3] (Homo sapiens, BXPC-3, 72 h). Besides, the IC50 was above 60 µM in the assay on PANC-1 cells (Homo sapiens, PANC-1, 24 h); above 60 µM with PANC-1 cells (Homo sapiens, PANC-1, 48 h); above 60 µM in the assay with PANC-1 cells (Homo sapiens, PANC-1, 72 h); above 60 µM in the assay with Capan-1 cells (Homo sapiens, CAPAN-1, 24 h); above 60 µM with Capan-1 cells (Homo sapiens, CAPAN-1, 48 h); above 60 µM in the assay on Capan-1 cells (Homo sapiens, CAPAN-1, 72 h). Further, the “effect on cell viability” value in assay [4] (all tested cells) is listed as “increase in cell viability”. For the same compound, the “effect on cell migration” value in assay [2] is on record as “did not significantly increase”.

As usually defined, the IC50 is the concentration that inhibits the measured activity by half. In general, EC50 refers to the concentration giving half of the maximal effect.
